Source: paper PMC6646794 (Biochimica et Biophysica Acta. Molecular Cell Research, 2019)
Read-outs that look alike come from different tables or passages of the source.

Tests used:
[1] = system: wild-type TRPM2; experiment: Whole cell patch-clamp, wild-type TRPM2 in HEK293 cells; type: cell-based, human; conditions: for whole cell current at 37 °C / whole cell current at room temperature: 200 nM free Ca2+, maximum current at +15 mV, median, 8–13 cells per condition; for effect of raising temperature to 37 °C on current: one-way ANOVA, Bonferroni
Protocol: (§1) HEK293 cells were kept at 37 °C and 5% CO2 in DMEM with 4.5 g/l glucose and GlutaMax-I (Gibco) supplemented with 10% (v/v) fetal bovine serum (Biochrom). Cells were split 1:10 to 1:20 twice a week.
For patch clamp experiments wild type HEK293 cells were transfected with expression vectors for either wild type TRPM2 or TRPM2 W1355A/I1368A 24 h before the experiments. To generate the transfection complex 2.5 μg of TRPM2 expression vector and 5 μl jetPEI reagent (PolyPlus Transfection, Strasbourg, France) were incubated for 30 min in a total volume of 250 μl (150 mM NaCl). Cells were detached from the culture bottle and adjusted to a density of 2.5 × 10^5 cells/ml. After addition of the transfection complex cells were seeded at low density to 35 mm cell culture dishes. Directly before the experiment the culture medium was replaced by bath solution (in mM: 140 N‑methyl‑D‑glucamine (NMDG), 5 KCl, 3.3 MgCl2, 1 CaCl2, 5 D‑glucose, 10 HEPES, adjusted to pH 7.4 with HCl). The replacement of Na^+ in the bath solution by NMDG (for which TRPM2 is impermeable) prevents cell rupture due to excessive current and the characteristic IV curve helps to distinguish activation of the nonselective cation channel from cells becoming leaky. […] The intracellular solution contains 200 nM free Ca^2+ (calculated using MaxChelator, http://maxchelator.stanford.edu/CaEGTA-NIST.htm). Whole cell currents were recorded using a HEKA EPC-10 amplifier and PatchMaster software (HEKA Elektronik, Lamprecht, Germany). To record TRPM2 activity, repetitive voltage ramps from −85 mV to +20 mV over 140 ms were applied every 5 s for 450 s. Before and in between ramps cells were clamped at −50 mV. Series resistance compensation was set to 70%. For temperature control the 35 mm dishes were placed inside an open culture dish incubator (DH-35i, Warner Instruments) connected to a single channel heater controller (TC-324C, Warner Instruments). Cells were continuously perfused at a flow rate of 0.3 ml/min with bath solution pre-warmed in a water bath.
For statistical analysis GraphPad Prism (v7.04 and v8.0.1; GraphPad Software) was used. Currents obtained from whole cell recordings tend to be positively skewed and were therefore log-transformed to achieve normality. After transformation all groups were normally distributed as assessed by D'Agostino & Pearson normality test. Data were tested by one-way ANOVA. p values from post-hoc comparisons between groups were adjusted for multiple comparison using Bonferroni correction. A significance level of α = 0.05 was adopted.

[2] = system: TRPM2; conditions: cited from earlier work
[3] = system: TRPM2 W1355A I1368A; experiment: Whole cell patch-clamp, TRPM2 W1355A I1368A in HEK293 cells; type: cell-based, human
Protocol: as §1
The mutations W1355A and I1368A were inserted into the eukaryotic expression vector for TRPM2 (pIRES2-EGFP-TRPM2) by two sequential rounds of QuikChange mutagenesis using the following primer pairs: for W1355A: 5′-[…]-3′ and 5′-[…]-3′, for I1368A: 5′- […]-3′ and 5′-[…]-3′. The full open reading frame was confirmed by DNA sequencing (Eurofins MWG Operon, Ebersberg, Germany).
For patch clamp experiments wild type HEK293 cells were transfected with expression vectors for either wild type TRPM2 or TRPM2 W1355A/I1368A 24 h before the experiments. […] The intracellular solution contains 200 nM free Ca^2+ (calculated using MaxChelator, http://maxchelator.stanford.edu/CaEGTA-NIST.htm). Whole cell currents were recorded using a HEKA EPC-10 amplifier and PatchMaster software (HEKA Elektronik, Lamprecht, Germany). […]
For statistical analysis GraphPad Prism (v7.04 and v8.0.1; GraphPad Software) was used. […] After transformation all groups were normally distributed as assessed by D'Agostino & Pearson normality test. […]

[4] = system: NudT9H domain; experiment: Thermal unfolding of NudT9H by nDSF; type: binding, human; conditions: NudT9H with ADPR versus without
Protocol: The intrinsic fluorescence at 330 and 350 nm after excitation at 280 nm is used to monitor the fluorescence change upon heat unfolding. […] Buffer conditions were 25 mM Tris (pH 7.4), 150 mM NaCl, 2 mM CaCl2, 10% (v/v) glycerol. The first derivative of the unfolding curves was used to determine the transition midpoint. Simultaneously, protein aggregation was followed by light scattering.

[5] = room temperature, 100 μM agonist in pipette
[6] = wild-type TRPM2, 100 μM agonist in pipette, room temperature to 37 °C

Compound	whole cell current at 37 °C ([1]; 100 μM agonist in pipette) [nA]	whole cell current at room temperature [1, 5]	effect of raising temperature to 37 °C on current [1, 6]	current compared to ADPR ([1]; wild-type TRPM2, 100 μM in pipette, room temperature, compared with 100 μM ADPR)	TRPM2 current compared with ADPR ([2]; basal Ca2+ concentrations, ref [22])	Ca2+ sensitivity of TRPM2 activation ([2]; ref [22])	current compared to ADPR ([3]; 100 μM in pipette, room temperature and 37 °C)	TRPM2 agonism ([2]; ref [21])	increase of current from room temperature to 37 °C ([1]; 100 μM agonist in pipette, room temperature to 37 °C, median values) [fold]	TRPM2 agonism ([2]; ref [20])	Ca2+ dependence of TRPM2 activation by ADPR ([2]; removal of both intra- and extracellular Ca2+, ref [15])	effect of temperature >35 °C on evoked TRPM2 current ([2]; temperatures >35 °C, ref [17])	stabilizing effect on NudT9H [4]	effect of raising temperature to 37 °C on current ([3]; 100 μM agonist in pipette, room temperature to 37 °C, one-way ANOVA, Bonferroni)
Nc1ncnc2c1ncn2[C@H]1C[C@H](O)[C@@H](COP(=O)(O)OP(=O)(O)OC[C@H]2OC(O)[C@H](O)[C@@H]2O)O1 (some centres unmarked) [2′-deoxy-ADPR, 2′-deoxy-adenosine diphosphate (ADP)-ribose]	1.4	4.5 nA	did not significantly increase	significantly higher at room temperature	elicits much higher TRPM2 currents than ADPR	less sensitive to Ca^2+	did not significantly differ from that with ADPR	–	–	–	–	–	–	–
ADP-ribose-2′-phosphate [2′-P-ADPR]	–	–	–	–	–	–	–	acts as partial agonist	–	–	–	–	–	–
Adenosine diphosphate ribose [ADPR]	2.2	150 pA	significantly increased	–	–	–	–	–	> 10	activates the channel	completely prevents activation of the channel by ADPR	significantly potentiates the current evoked by ADPR	ruling out a stabilizing effect of ADPR on NudT9H	no significant increase
